Results: patent publication US20240218066A1, “USE OF ANTI-PD-1 ANTIBODY IN COMBINATION WITH FIRST-LINE CHEMOTHERAPY IN TREATMENT OF ADVANCED NON-SMALL CELL LUNG CANCER” (SHANGHAI JUNSHI BIOSCIENCES CO., LTD., priority 2021, published 2024)

Key:
[1] = system: patients with untreated advanced NSCLC; test: Phase III clinical study, efficacy assessed by the investigator according to RECIST 1.1; format: in vivo, human; design: reduction of the risk of progression or death, compared to standard chemotherapy / increase of PFS rate at 6 months compared to control group / increase of PFS rate at 12 months compared to control group / increase in ORR compared to control group: concentration or dose not given beside the values
Protocol: About 450 patients with advanced NSCLC not accompanied by EGFR-sensitive mutations and ALK fusions were randomly divided into two groups according to a 2:1 ratio, with the test group receiving toripalimab in combination with first-line standard chemotherapy and the control group receiving placebo in combination with first-line standard chemotherapy. Stratification was performed according to PD-L1 expression (TC≥1% vs TC<1%), smoking status (frequent smoking vs no smoking or little smoking), and pathological type (squamous cell carcinoma vs non-squamous cell carcinoma).
After randomization, the patients were subjected to treatment in the induction stage for 4-6 cycles, during which the patients received toripalimab/placebo+first-line standard chemotherapy. After the induction stage was over, the patients were subjected to treatment in the maintenance stage, during which patients with squamous cell carcinoma continued to receive toripalimab/placebo treatment until progressive disease, and patients with non-squamous cell carcinoma continued to receive toripalimab/placebo+pemetrexed treatment until progressive disease.
Tumor assessments were performed once every 6 weeks for the first 12 months of the study stage according to RECIST 1.1 and iRECIST; after 12 months, tumor assessments were performed every 9 weeks until progressive disease, initiation of a new anti-tumor therapy, intolerable toxicity, withdrawal of informed consent or death, 2 years of treatment with toripalimab, or other reasons as specified in the protocol, whichever occurred first.
Eligible subjects must (1) be patients with histologically and/or cytologically confirmed locally advanced (stage IIIB or IIIC) and stage IV non-small cell lung cancer that is inoperable and cannot receive radical concurrent chemoradiotherapy; (2) have at least one measurable lesion (according to RECIST 1.1); (3) have not received any systemic treatment (patients with recurrence more than 6 months after completion of prior neoadjuvant/adjuvant therapy may also be enrolled); (4) be aged between 18 and 75 years; (5) have ECOG of 0-1; (6) have an expected survival of ≥3 months; and (7) be available to provide tissue specimens for PD-L1 testing.
Unless otherwise specified, the efficacy analysis was based on the ITT set, which was analyzed by groups according to the treatment regimen to which patients were assigned at randomization.
The progression-free survival rate and median progression-free survival of the JS001+first-line standard treatment group and the placebo+first-line standard treatment group at different time points after the start of treatment were estimated by the Kaplan-Meier method, and Kaplan-Meier curves were plotted. The 95% confidence interval for progression-free survival rate at different time points (6 months and 1 year) was estimated using the Greenwood formula. The 95% confidence interval for median progression-free survival was estimated using the Brookmeyer-Crowley method where the log-log function conversion was used to reach normal approximation. Statistical test was performed on the inter-group difference by a stratified log-rank method for the total population. Statistical test was performed on the inter-group difference by a non-stratified log-rank method for the subpopulations. A stratified COX proportional hazards model was used to estimate the inter-group hazard ratio (HR) and the corresponding 95% confidence interval, and the tied events were processed by an exact method. Stratification analysis was performed using 3 stratification factors in the randomization process, including: (1) PD-L1 expression (TC≥1% vs TC<1%); (2) smoking status (frequent smoking vs no smoking or little smoking); and (3) pathological type (squamous cell carcinoma vs non-squamous cell carcinoma).
For analysis of secondary efficacy endpoints OS, DOR, and TTR, the method described above as applied to the primary efficacy endpoint PFS was used. […]

[2] = system: patients with untreated advanced NSCLC; test: Phase III clinical study, biomarker analysis (WES, TMB, gene mutations); format: in vivo, human
Protocol: As of Oct. 31, 2021, whole exome sequencing (WES) was performed on tumor biopsies and matched peripheral blood from 394 patients.
Tumor mutation burden (TMB) was determined by analyzing somatic mutations within coding regions of the human genome. The median TMB in each group was 6.6 mutations per million base pairs (Mb). Tumor tissue from 122 (26.2%) patients had more than 10 mutations/Mb, 72.1% of which was also PD-L1 TC≥1% (see FIG. 6a). […] However, compared to TMB-L (i.e., low TMB) patients (TMB<10 mutations/Mb). TMB-H patients had better PFS in the toripalimab group than in the placebo group (interaction P=0.026) (see FIGS. 7a and 7b).
Gene set enrichment analysis was performed on the relevant genes to identify over-represented biological pathways. […] In addition, patients with alterations in the IL-7 signaling pathway (HGF, IRS1, IRS2, and SMARCA4) or chromatin remodeling SWI/SNF complex (SMARCA4, SMARCA2, and PBRM1) also had better PFS results from combination therapy with toripalimab (see FIGS. 12-13).

[3] = patients with BOR reaching CR or PR, overall population
[4] = patients with non-squamous cell carcinoma
[5] = patients with non-squamous cell carcinoma, listed as test group
[6] = patients with squamous cell carcinoma
[7] = patients with squamous cell carcinoma, listed as test group

“JS001 + standard first-line chemotherapy: toripalimab 240 mg Q3W plus albumin-bound paclitaxel+carboplatin (squamous) or pemetrexed+cisplatin/carboplatin (non-squamous)” was tested, and the “PFS rate at 6 months” value ([1]; ITT) was 62.3%, the “PFS rate at 12 months” value ([1]; ITT) was 32.6% and the “increase of PFS rate at 6 months compared to control group” value ([1]; ITT) was 20.8%. For the same substance, the “increase of PFS rate at 12 months compared to control group” value ([1]; ITT) was 19.5%, the “HR for PFS (test vs control)” value ([1]; ITT population, RECIST 1.1) was 0.58 and the “PFS prolonged by, compared to standard chemotherapy” value ([1]; ITT population, RECIST 1.1) was 2.7 months. For the same substance, the “reduction of the risk of progression or death, compared to standard chemotherapy” value ([1]; ITT population, RECIST 1.1) was 42%, the “median PFS” value ([1]; ITT population, RECIST 1.1, interim analysis as of Nov. 17, 2020) was 8.3 months and the “Best overall response: Complete response (CR)” value ([1]; non-squamous cell carcinoma) was 0 N (%). For the same substance, the “Best overall response: Deletion” value ([1]; non-squamous cell carcinoma) was 8 (4.9) N (%), the “Best overall response: Not evaluable (NE)” value ([1]; non-squamous cell carcinoma) was 0 N (%) and the “Best overall response: Partial response (PR)” value ([1]; non-squamous cell carcinoma) was 95 (58.6) N (%). The “Best overall response: Progressive disease (PD)” value ([1]; non-squamous cell carcinoma) was 5 (3.1) N (%), the “Objective response rate (ORR)” value ([1]; non-squamous cell carcinoma) was 95 (58.6) N (%) and the DCR ([1]; overall population) was 90.9%. For the same substance, the “DOR prolonged by, compared to control group” value ([1]; overall population) was 4.1 months, the “HR for DOR (test vs control)” value ([1]; overall population) was 0.56 and the “increase in ORR compared to control group” value (“increase in ORR” for short) ([1]; overall population) was 21.7%. For the same substance, the ORR ([1]; overall population, RECIST v1.1) was 63.4%, the “median DOR” value [1, 3] was 8.3 months and the “median TTR” value [1, 3] was 1.5 months. For the same substance, the “HR for DOR (test vs control)” value [1, 4] was 0.63, the “HR for PFS (test vs control)” value [1, 4] was 0.59 and the ORR [1, 4] was 58.6%. For the same substance, the “increase in ORR” value [1, 4] was 32.1%, the “median DOR (95% confidence interval)” value [1, 4] was 8.6 (6.9, NE) months and the “median TTR (95% confidence interval)” value [1, 4] was 1.4 (1.4, 1.9) months. The “median PFS” value ([1]; patients with non-squamous cell carcinoma, RECIST 1.1) was 8.4 months, the “median DOR (95% confidence interval)” value [1, 5] was 8.6 months and the “median TTR (95% confidence interval)” value [1, 5] was 1.4 months. For the same substance, the “HR for DOR (test vs control)” value [1, 6] was 0.46, the “HR for PFS (test vs control)” value [1, 6] was 0.55 and the ORR [1, 6] was 68.7%. For the same substance, the “increase in ORR” value [1, 6] was 9.8%, the “median DOR (95% confidence interval)” value [1, 6] was 6.9 (4.5, NE) months and the “median TTR (95% confidence interval)” value [1, 6] was 1.5 (1.4, 1.6) months. For the same substance, the “median PFS” value ([1]; patients with squamous cell carcinoma, RECIST 1.1) was 7.1 months, the “median DOR (95% confidence interval)” value [1, 7] was 6.9 months and the “median TTR (95% confidence interval)” value [1, 7] was 1.5 months. The “Best overall response: Complete response (CR)” value ([1]; squamous cell carcinoma) was 0 N (%), the “Best overall response: Deletion” value ([1]; squamous cell carcinoma) was 8 (5.4) N (%) and the “Best overall response: Not evaluable (NE)” value ([1]; squamous cell carcinoma) was 1 (0.7) N (%). The “Best overall response: Partial response (PR)” value ([1]; squamous cell carcinoma) was 101 (68.7) N (%), the “Best overall response: Progressive disease (PD)” value ([1]; squamous cell carcinoma) was 6 (4.1) N (%) and the “Objective response rate (ORR)” value ([1]; squamous cell carcinoma) was 101 (68.7) N (%). For the same substance, the “response rate (ORR)” value ([2]; ITT population, as of Oct. 31, 2021) was 65.7%, the ORR ([2]; TMB-H patients (TMB≥10 mutations/Mb), as of Oct. 31, 2021) was 72.7% and the “median PFS” value ([2]; patients carrying FA/PI3K/Akt pathway mutations) was 8.9 months. The “median PFS” value ([2]; patients carrying the SMARCA4 mutation (n=48), especially non-squamous cell subgroup (n=33)) was 9.9 months.
